From patent US20250381157A1, “ANTIMICROBIAL COMPOUNDS” (priority 2022, published 2025) come the findings set out here.

The subject of one data set is Caco-2 cells. Briefly: Caco-2 cell study (permeability, efflux). The data set is classed as in vitro ADME. An excerpt:
Caco-2 cells are used as a model of the intestinal epithelial barrier.
(Passage across Caco-2 layers is used to estimate intestinal permeability.)

Data set [1] in a line: Stability SGD, SIF w. Enzymes. The data set is classed as in vitro ADME.
In a further data set the target is T1, recombinant human HDAC7 (Homo sapiens, UniProt Q8WUI4).
T1 construct: purchased BPS 50007
T1 sequence (Q8WUI4 1-952): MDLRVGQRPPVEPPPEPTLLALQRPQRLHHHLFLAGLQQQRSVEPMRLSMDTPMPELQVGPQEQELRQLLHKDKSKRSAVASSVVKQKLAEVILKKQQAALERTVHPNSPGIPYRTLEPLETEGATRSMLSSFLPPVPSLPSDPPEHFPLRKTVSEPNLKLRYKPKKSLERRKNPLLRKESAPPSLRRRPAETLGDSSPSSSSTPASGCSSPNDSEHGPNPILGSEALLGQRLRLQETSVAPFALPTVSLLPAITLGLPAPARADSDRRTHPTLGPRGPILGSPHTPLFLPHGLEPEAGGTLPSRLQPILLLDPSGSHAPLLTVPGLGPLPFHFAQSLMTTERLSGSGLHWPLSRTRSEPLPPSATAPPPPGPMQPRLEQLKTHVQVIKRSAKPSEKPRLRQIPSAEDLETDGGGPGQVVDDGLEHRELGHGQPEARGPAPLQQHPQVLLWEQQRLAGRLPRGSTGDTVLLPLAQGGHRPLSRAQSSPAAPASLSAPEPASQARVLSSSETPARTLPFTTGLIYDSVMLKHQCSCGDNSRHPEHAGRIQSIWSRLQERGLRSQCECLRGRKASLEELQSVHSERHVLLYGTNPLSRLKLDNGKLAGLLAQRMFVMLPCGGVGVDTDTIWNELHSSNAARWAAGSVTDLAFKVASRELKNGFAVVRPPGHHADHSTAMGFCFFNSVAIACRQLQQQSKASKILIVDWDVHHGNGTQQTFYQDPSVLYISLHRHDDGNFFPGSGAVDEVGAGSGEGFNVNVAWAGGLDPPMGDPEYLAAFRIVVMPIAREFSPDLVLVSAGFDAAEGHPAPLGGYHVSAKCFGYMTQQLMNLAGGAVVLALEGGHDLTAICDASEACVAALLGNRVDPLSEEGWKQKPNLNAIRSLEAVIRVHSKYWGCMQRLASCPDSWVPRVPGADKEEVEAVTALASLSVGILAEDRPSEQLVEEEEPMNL
Nature of the data set: HDAC7 in-vitro enzymatic assay. Type of data set: biochemical. How it is done:
All of the compounds were dissolved in DMSO. A series of dilutions of the compounds were prepared with 10% DMSO in HDAC assay buffer and 5 μl of the dilution was added to a 50 μl reaction so that the final concentration of DMSO was 1% in all of reactions. The compounds were pre-incubated in duplicate at RT for 30 minutes in a mixture containing HDAC assay buffer, 5 μg BSA, HDAC enzyme and a test compound. After 30 minutes, the enzymatic reactions were initiated by the addition of HDAC substrate to a final concentration of 20 μM or 2 μM. The enzymatic reaction proceeded for 30 minutes at 37° C. After enzymatic reactions, 50 μl of 2×HDAC Developer was added to each well for the HDAC enzymes and the plate was incubated at room temperature for an additional 15 minutes. Fluorescence intensity was measured at an excitation of 360 nm and an emission of 460 nm using a Tecan Infinite M1000 microplate reader.
HDAC activity assays were performed in duplicates at each concentration. The fluorescent intensity data were analyzed using the computer software, Graphpad Prism. […] The percent activity in the presence of each compound was calculated according to the following equation: % activity=(F−Fb)/(Ft−Fb), where F=the fluorescent intensity in the presence of the compound. […] The IC50 value was determined by the concentration causing a half-maximal percent activity.

Each structure is given as a SMILES string.

Broadly, the IC50 is the concentration that gives 50% inhibition. For `C#CCOCC(=O)Nc1ccc(C(=O)Nc2ccccc2N)cc1` [Compound 1, N-(2-aminophenyl)-4-{2-[(prop-2-yn-1-yl)oxy]acetamido}benzamide], the “Caco-2 Permeability A-B dir.” value in the data set on Caco-2 cells is listed as “High”; with Caco-2 cells (listed as compound 1) it was “high”. In addition, the Active efflux result with Caco-2 cells (Caco-2) was “No”. In data set [1], the “Stability SGD, SIF w. Enzymes” value is recorded as “High”. In addition, at recombinant human HDAC7, the IC50 is over 200 µM. Besides, the “Inhib. HDAC7” value on recombinant human HDAC7 (@ 200 μM) is “No Inhib. @ 200 μM”.
